From patent USRE45313E1, “Exendin variant peptides” (priority 1999, dated 2014)

Assays:
[1] = In vivo pharmacokinetics after i.v. administration to rabbits; conditions: iv; for half-life: New Zealand White, rabbit, in vivo, 1000 nmol/kg, iv 1000 nmol/kg, mean
Method: In order to establish whether this effect is sustained in vivo, the pharmacokinetic parameters of the two compounds are examined in rabbits.
Compound 4 (batch No. ZP 7.97-5-F, 4053 g/mol) and Compound (iii) (batch No. ZP 7.73-2-G, 3854 g/mol) were synthesised in-house using the Fmoc strategy. […] The peptides were dissolved in pyrogen free isotonic saline and both peptides were administered i.v. to rabbits and rats using a dose of 1000 nmol/kg.
Fifteen New Zealand White rabbits weighing 2.5 to 3.0 kg were used for the experiment. On the day of the experiment, the rabbits were anaesthetised with Hypnorm® i.m. followed by Dormicum® i.v., Catheters were inserted into the femoral vein and artery for i.v. administration of drugs and arterial blood sampling. The rabbits stayed unconscious throughout the experiment.
Blood samples were collected at t−1, 3, 5, 10, 15, 20, 30, 40, 60, 90, 120, 150, 180, and 240 min. The blood was collected in EDTA containing ice-chilled tubes and immediately centrifuged at 4 C for 5 min (20.000×g). Plasma (250 μl) was transferred to ice-chilled 0.75 ml PLC vials containing 250 μl extraction solution (MeCN: 0.18 M Ammonium Carbonate pH 9.5, 10:90 v/v). The plasma samples were stored at −20 C until SPE and LC/MS analysis.
The drug containing plasma samples (400 μl) are loaded onto OASIS™ HLB (Compound 4) or ISOLUTE™ (Compound (iii)) solid phase extraction columns preconditioned with 950 μl MeCN followed by 950 μl water. The columns are washed with 950 μl 2% TFA in water followed by an equal volume of 2% TFA in MeCN:water (20:78 v/v). The analytes are eluted with 500 μl 2% TFA in MeCN:water (60:38 v/v) and analysed by LC/MS.
The samples were kept at 18 C in the auto sampler tray prior to injection of 20 to 50 μl onto the LC column (Vydac 218MS52 (2.1×250 mm). The separations were performed at 30° C. using a flow rate of 250 μl/min and a gradient according to the table below. Both the test compound and the reference drug are detected by single ion recording (SIR) using the m/z=676.7 and the m/z=1095.2 and 821.8 ion species, respectively. All instrument conditions were controlled by MassLynx software ver. 3.3 software.
The plasma samples were analysed as described under materials and methods and the plasma concentration (Cpl) plotted versus time in a semi log diagram. The plasma concentration were followed for three hours in rabbits, whereas the limited blood volume of rats restricted the blood sampling in this specie to one hour. The Cpl vs. time curves from the individual rabbits were fitted to a two-compartment open model (figure not shown) using 1/y^2 weighted least squares in WinNonlin 3.1 (Pharsight Corp. (Mountain View, Calif.)).
Table 5: The pharmacokinetic constants were obtained from rabbits when the Cpl vs. time curves was fitted mathematically. The compounds were administered iv in a concentration of 1000 nmol/kg. T1/2 values are given in minutes (min) for the a and P phase.

in vivo = test: in vivo
Method: Compound 4 (batch No. ZP 7.97-5-F, 4053 g/mol) and Compound (iii) (batch No. ZP 7.73-2-G, 3854 g/mol) were synthesised in-house using the Fmoc strategy.
Plasma (250 μl) was transferred to ice-chilled 0.75 ml PLC vials containing 250 μl extraction solution (MeCN: 0.18 M Ammonium Carbonate pH 9.5, 10:90 v/v). The plasma samples were stored at −20 C until SPE and LC/MS analysis.

in vitro = conditions: 37 C, followed for 720 min; for half-life at 10 µg/ml: Sprague-Dawley, rat, heparin-stabilised rat plasma, T½ in rat plasma; for T½ in rat plasma / kobs (degradation rate): heparin stabilised rat plasma
Method: The degradation of the two test compounds and in heparin stabilised rat (Sprague-Dawley) plasma was followed by the combination of solid phase extraction and LC-MS. The degradation was followed for 720 minutes in plasma.
Blank rat plasma in sodium heparin (5000 units/mL) were obtained from Harlan Sera Lab Ltd. (Loughborough, UK).
The LC-MS analysis was performed on an HP 1100 instrument consisting of an on-line degasser, a quaternary gradient pump, an auto sampler, a column oven, Hewlett Packard (Wilmington. Del., U.S.A.) in combination with a Quattro Ultima mass spectrometer from Micromass (Altrincham, UK). Both the LC and MS were controlled by MassLynx 3.3 software. The LC separations prior to MS detection were performed on a Vydac 218MS52 (2.1×250 mm) column (Hesperia, Calif., U.S.A.).
The initial plasma volume was 1000 μl (37° C.). From the initial plasma volume, 100 μl was transferred to a 0.75 ml HPLC vial (used as blank), mixed with 560 μl extraction solution (MeCN:0.18 M ammonium carbonate pH 9.5 (6:94 v/v), 4 C) and extracted by Solid Phase Extraction using ASPEC XL4 Robot. A volume of 100 μl stock solution was added to the remaining 900 μl plasma, mixed thoroughly and incubated at 37 C (corresponding to an initial concentration of 10 μg of the test compounds/ml). At each time point (0.2, 60, 120, 180, 240, 360, 480, 662 and 720 min., respectively) 100 μl of the drug containing plasma was collected, mixed with 560 μl ice cold extraction solution and immediately extracted by SPE as described above. The extracted plasma samples were analysed by LC-MS.
The samples were kept at 18° C. in the autosampler tray prior to injection of 10 μl. The separations were performed at 30° C. on a Vydac 218MS52 (2.1×250 mm) LC column using a linear gradient from 15 to 50% B within 14 min. at a flow rate of 250 μl/min 0.1% formic acid in water was used as mobile phase A and 0.1% formic acid in MeCN as mobile phase B. Compound 4 and Compound (iii) were detected by single ion recording (SIR) using the 6 H+(m/z=676.7) and 4 H+(m/z=822.1) ion species, respectively. The cone voltage for the analysis of compound (iii) and Compound 4 was set to 100 and 70 V respectively. […] The degradation of the two compounds were followed for 720 min and the results were plotted as the natural logarithm of the peak area vs. time.

SMILES	half-life ([1]; T1/2, α) [min]	half-life ([1]; T1/2, β) [min]	T½ value relative to the unconjugated peptide ([1]; Table 5)	detected in the plasma samples (rats) (in vivo; intra duodenal administration of 1.000 nmol/kg)	detected in the plasma samples (rats) (in vivo; intra duodenal administration of 10.000 nmol/kg)	half-life at 10 µg/ml (in vitro) [min]	T½ in rat plasma (in vitro) [min]	kobs (degradation rate) (in vitro) [min⁻¹]	level at time molar (in vivo; Sprague-Dawley, rat, plasma, 10 nmol/kg) [nM]
CC[C@H](C)[C@H](NC(=O)[C@H](Cc1ccccc1)NC(=O)[C@H](CCC(=O)O)NC(=O)[C@H](CCCCN)NC(=O)[C@H](C)NC(=O)[C@H](C)NC(=O)[C@H](CCC(N)=O)NC(=O)CNC(=O)[C@H](CCC(=O)O)NC(=O)[C@H](CC(C)C)NC(=O)[C@H](Cc1ccc(O)cc1)NC(=O)[C@H](CO)NC(=O)[C@H](CO)NC(=O)[C@@H](NC(=O)[C@H](CC(=O)O)NC(=O)[C@H](CO)NC(=O)[C@@H](NC(=O)[C@H](Cc1ccccc1)NC(=O)[C@@H](NC(=O)CNC(=O)[C@H](CCC(=O)O)NC(=O)CNC(=O)[C@@H](N)Cc1c[nH]cn1)[C@@H](C)O)[C@@H](C)O)C(C)C)C(=O)N[C@@H](C)C(=O)N[C@@H](Cc1c[nH]c2ccccc12)C(=O)N[C@@H](CC(C)C)C(=O)N[C@H](C(=O)N[C@@H](CCCCN)C(=O)NCC(=O)N[C@@H](CCCNC(=N)N)C(=O)N[C@@H](CCCCN)C(=O)N[C@@H](CCCCN)C(=O)N[C@@H](CCCCN)C(=O)N[C@@H](CCCCN)C(=O)N[C@@H](CCCCN)C(=O)N[C@@H](CCCCN)C(N)=O)C(C)C [Compound 4]	6.8	28	approximately three times	two out of four rats	four out of five rats	466	466.1	0.0015	–
CC[C@H](C)[C@H](NC(=O)[C@H](Cc1ccccc1)NC(=O)[C@H](CCC(=O)O)NC(=O)[C@H](CCCCN)NC(=O)[C@H](C)NC(=O)[C@H](C)NC(=O)[C@H](CCC(N)=O)NC(=O)CNC(=O)[C@H](CCC(=O)O)NC(=O)[C@H](CC(C)C)NC(=O)[C@H](Cc1ccc(O)cc1)NC(=O)[C@H](CO)NC(=O)[C@H](CO)NC(=O)[C@@H](NC(=O)[C@H](CC(=O)O)NC(=O)[C@H](CO)NC(=O)[C@@H](NC(=O)[C@H](Cc1ccccc1)NC(=O)[C@@H](NC(=O)CNC(=O)[C@H](CCC(=O)O)NC(=O)CNC(=O)[C@@H](N)Cc1cnc[nH]1)[C@@H](C)O)[C@@H](C)O)C(C)C)C(=O)N[C@@H](C)C(=O)N[C@@H](Cc1c[nH]c2ccccc12)C(=O)N[C@@H](CC(C)C)C(=O)N[C@H](C(=O)N[C@@H](CCCCN)C(=O)NCC(=O)N[C@@H](CCCNC(=N)N)C(N)=O)C(C)C [Compound (iii), reference compound]	2.3	10.8	–	–	–	238	238.4	0.0029	< 0.5
